Experimental data: PubChem BioAssay AID1963980 (Molecular Pharmacology Branch, DTP, NCI, 2024)
Each block holds one compound with its values, some of them ahead of it.

Test system: 475296-252-R-J1-PDC spheroid viability
Experiment: Anticancer human tumor 475296-252-R-J1-PDC patient-derived rectal carcinoma cell line growth inhibition [PI3K]
Conditions: spheroids with HUVEC and MSC; for IC50: curve of first compound; for viability, T/C: stronger effect = lower value
Summary of the method: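 Combination activity was assessed by viability in multicellular tumor spheroids carrying HUVEC and MSC components. Agents were tested with PI3K inhibitors from a Cmax-based top dose (or 10 microM) downward in half-log increments.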

[1] = second compound 0.0316 µM, first compound 0.000316 µM
[2] = second compound 0.0316 µM, first compound 0.001 µM
[3] = second compound 0.0316 µM, first compound 0.00316 µM
[4] = second compound 0.0316 µM, first compound 0.01 µM
[5] = second compound 0.0316 µM, first compound 0.0316 µM
[6] = second compound 0.0316 µM, first compound 0.1 µM
[7] = second compound 0.1 µM, first compound 0.000316 µM
[8] = second compound 0.1 µM, first compound 0.001 µM
[9] = second compound 0.1 µM, first compound 0.00316 µM
[10] = second compound 0.1 µM, first compound 0.01 µM
[11] = second compound 0.1 µM, first compound 0.0316 µM
[12] = second compound 0.1 µM, first compound 0.1 µM
[13] = second compound 0.316 µM, first compound 0.000316 µM
[14] = second compound 0.316 µM, first compound 0.001 µM
[15] = second compound 0.316 µM, first compound 0.00316 µM
[16] = second compound 0.316 µM, first compound 0.01 µM
[17] = second compound 0.316 µM, first compound 0.0316 µM
[18] = second compound 0.316 µM, first compound 0.1 µM
[19] = second compound 1 µM, first compound 0.000316 µM
[20] = second compound 1 µM, first compound 0.001 µM
[21] = second compound 1 µM, first compound 0.00316 µM
[22] = second compound 1 µM, first compound 0.01 µM
[23] = second compound 1 µM, first compound 0.0316 µM
[24] = second compound 1 µM, first compound 0.1 µM
[25] = second compound 3.16 µM, first compound 0.000316 µM
[26] = second compound 3.16 µM, first compound 0.001 µM
[27] = second compound 3.16 µM, first compound 0.00316 µM
[28] = second compound 3.16 µM, first compound 0.01 µM
[29] = second compound 3.16 µM, first compound 0.0316 µM
[30] = second compound 3.16 µM, first compound 0.1 µM
[31] = second compound 10 µM, first compound 0.000316 µM
[32] = second compound 10 µM, first compound 0.001 µM
[33] = second compound 10 µM, first compound 0.00316 µM
[34] = second compound 10 µM, first compound 0.01 µM
[35] = second compound 10 µM, first compound 0.0316 µM
[36] = second compound 10 µM, first compound 0.1 µM
[37] = second compound 0.0316 µM, first compound 0.316 µM
[38] = second compound 0.0316 µM, first compound 1 µM
[39] = second compound 0.0316 µM, first compound 3.16 µM
[40] = second compound 0.0316 µM, first compound 10 µM
[41] = second compound 0.1 µM, first compound 0.316 µM
[42] = second compound 0.1 µM, first compound 1 µM
[43] = second compound 0.1 µM, first compound 3.16 µM
[44] = second compound 0.1 µM, first compound 10 µM
[45] = second compound 0.316 µM, first compound 0.316 µM
[46] = second compound 0.316 µM, first compound 1 µM
[47] = second compound 0.316 µM, first compound 3.16 µM
[48] = second compound 0.316 µM, first compound 10 µM
[49] = second compound 1 µM, first compound 0.316 µM
[50] = second compound 1 µM, first compound 1 µM
[51] = second compound 1 µM, first compound 3.16 µM
[52] = second compound 1 µM, first compound 10 µM
[53] = second compound 3.16 µM, first compound 0.316 µM
[54] = second compound 3.16 µM, first compound 1 µM
[55] = second compound 3.16 µM, first compound 3.16 µM
[56] = second compound 3.16 µM, first compound 10 µM
[57] = second compound 10 µM, first compound 0.316 µM
[58] = second compound 10 µM, first compound 1 µM
[59] = second compound 10 µM, first compound 3.16 µM
[60] = second compound 10 µM, first compound 10 µM
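Further: spheroids exposed to agents for seven days before readout.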

IC50 (second compound 0.0316 µM): > 0.1 µM
IC50 (second compound 0.1 µM): > 0.1 µM
IC50 (second compound 0.316 µM): > 0.1 µM
IC50 (second compound 1 µM): > 0.1 µM
IC50 (second compound 3.16 µM): > 0.1 µM
IC50 (second compound 10 µM): > 0.1 µM
SMILES: CC(=O)c1c(C)c2cnc(Nc3ccc(N4CCNCC4)cn3)nc2n(C2CCCC2)c1=O + Cc1nc(NC(=O)N2CCCC2C(N)=O)sc1-c1ccnc(C(C)(C)C(F)(F)F)c1
viability, T/C [1]: 99.6%
viability, T/C [2]: 96.9%
viability, T/C [3]: 101%
viability, T/C [4]: 97.4%
viability, T/C [5]: 117%
viability, T/C [6]: 118%
viability, T/C [7]: 106%
viability, T/C [8]: 94.4%
viability, T/C [9]: 107%
viability, T/C [10]: 91.3%
viability, T/C [11]: 103%
viability, T/C [12]: 108%
viability, T/C [13]: 92%
viability, T/C [14]: 114%
viability, T/C [15]: 94.1%
viability, T/C [16]: 101%
viability, T/C [17]: 110%
viability, T/C [18]: 101%
viability, T/C [19]: 101%
viability, T/C [20]: 95.5%
viability, T/C [21]: 100%
viability, T/C [22]: 112%
viability, T/C [23]: 104%
viability, T/C [24]: 102%
viability, T/C [25]: 90.4%
viability, T/C [26]: 102%
viability, T/C [27]: 96.8%
viability, T/C [28]: 99%
viability, T/C [29]: 99.8%
viability, T/C [30]: 98.9%
viability, T/C [31]: 98%
viability, T/C [32]: 92.7%
viability, T/C [33]: 96.9%
viability, T/C [34]: 98.9%
viability, T/C [35]: 98.8%
viability, T/C [36]: 90.2%

IC50 (second compound 0.0316 µM): > 0.1 µM
IC50 (second compound 0.1 µM): > 0.1 µM
IC50 (second compound 0.316 µM): > 0.1 µM
IC50 (second compound 1 µM): > 0.1 µM
IC50 (second compound 3.16 µM): > 0.1 µM
IC50 (second compound 10 µM): > 0.1 µM
SMILES: CC(C)n1nc(-c2ccc3oc(N)nc3c2)c2c(N)ncnc21 + Cc1nc(NC(=O)N2CCCC2C(N)=O)sc1-c1ccnc(C(C)(C)C(F)(F)F)c1
viability, T/C [1]: 93.5%
viability, T/C [2]: 95.3%
viability, T/C [3]: 93.1%
viability, T/C [4]: 88.4%
viability, T/C [5]: 83.9%
viability, T/C [6]: 64.1%
viability, T/C [7]: 92.1%
viability, T/C [8]: 98%
viability, T/C [9]: 95.2%
viability, T/C [10]: 84.5%
viability, T/C [11]: 76.8%
viability, T/C [12]: 62%
viability, T/C [13]: 97.1%
viability, T/C [14]: 95.4%
viability, T/C [15]: 85%
viability, T/C [16]: 92.8%
viability, T/C [17]: 85.9%
viability, T/C [18]: 59.9%
viability, T/C [19]: 89.8%
viability, T/C [20]: 106%
viability, T/C [21]: 87.3%
viability, T/C [22]: 91.9%
viability, T/C [23]: 70.2%
viability, T/C [24]: 57.1%
viability, T/C [25]: 83.4%
viability, T/C [26]: 86%
viability, T/C [27]: 88.4%
viability, T/C [28]: 77.5%
viability, T/C [29]: 82.3%
viability, T/C [30]: 54.3%
viability, T/C [31]: 91.1%
viability, T/C [32]: 85.1%
viability, T/C [33]: 83.8%
viability, T/C [34]: 89.2%
viability, T/C [35]: 86.5%
viability, T/C [36]: 54.4%

IC50 (second compound 0.0316 µM): > 10 µM
IC50 (second compound 0.1 µM): > 10 µM
IC50 (second compound 0.316 µM): > 10 µM
IC50 (second compound 1 µM): > 10 µM
IC50 (second compound 3.16 µM): > 10 µM
IC50 (second compound 10 µM): > 10 µM
SMILES: CCCS(=O)(=O)Nc1ccc(F)c(C(=O)c2c[nH]c3ncc(-c4ccc(Cl)cc4)cc23)c1F + Cc1nc(NC(=O)N2CCCC2C(N)=O)sc1-c1ccnc(C(C)(C)C(F)(F)F)c1
viability, T/C [5]: 88.8%
viability, T/C [6]: 95.5%
viability, T/C [37]: 92.2%
viability, T/C [38]: 91.5%
viability, T/C [39]: 80.5%
viability, T/C [40]: 94%
viability, T/C [11]: 106%
viability, T/C [12]: 94.6%
viability, T/C [41]: 88%
viability, T/C [42]: 81.2%
viability, T/C [43]: 98.7%
viability, T/C [44]: 100%
viability, T/C [17]: 85%
viability, T/C [18]: 94.8%
viability, T/C [45]: 98.2%
viability, T/C [46]: 92.6%
viability, T/C [47]: 91.1%
viability, T/C [48]: 96.3%
viability, T/C [23]: 83.1%
viability, T/C [24]: 97.3%
viability, T/C [49]: 88.2%
viability, T/C [50]: 89.8%
viability, T/C [51]: 89.3%
viability, T/C [52]: 82%
viability, T/C [29]: 83.6%
viability, T/C [30]: 92.8%
viability, T/C [53]: 87.6%
viability, T/C [54]: 92%
viability, T/C [55]: 89.9%
viability, T/C [56]: 73%
viability, T/C [35]: 80.4%
viability, T/C [36]: 82%
viability, T/C [57]: 82.1%
viability, T/C [58]: 80.4%
viability, T/C [59]: 76.3%
viability, T/C [60]: 66.1%

IC50 (second compound 0.0316 µM): > 10 µM
IC50 (second compound 0.1 µM): > 10 µM
IC50 (second compound 0.316 µM): > 10 µM
IC50 (second compound 1 µM): > 10 µM
IC50 (second compound 3.16 µM): > 10 µM
IC50 (second compound 10 µM): > 10 µM
SMILES: CNC(=O)c1ccc(N2C(=S)N(c3ccc(C#N)c(C(F)(F)F)c3)C(=O)C2(C)C)cc1F + Cc1nc(NC(=O)N2CCCC2C(N)=O)sc1-c1ccnc(C(C)(C)C(F)(F)F)c1
viability, T/C [5]: 101%
viability, T/C [6]: 88.1%
viability, T/C [37]: 98.8%
viability, T/C [38]: 87.7%
viability, T/C [39]: 95.7%
viability, T/C [40]: 95.2%
viability, T/C [11]: 102%
viability, T/C [12]: 91.8%
viability, T/C [41]: 99.6%
viability, T/C [42]: 86.6%
viability, T/C [43]: 111%
viability, T/C [44]: 114%
viability, T/C [17]: 92.2%
viability, T/C [18]: 101%
viability, T/C [45]: 86.1%
viability, T/C [46]: 104%
viability, T/C [47]: 101%
viability, T/C [48]: 108%
viability, T/C [23]: 90.5%
viability, T/C [24]: 104%
viability, T/C [49]: 95.6%
viability, T/C [50]: 102%
viability, T/C [51]: 89.8%
viability, T/C [52]: 109%
viability, T/C [29]: 81.1%
viability, T/C [30]: 104%
viability, T/C [53]: 92.3%
viability, T/C [54]: 98.1%
viability, T/C [55]: 108%
viability, T/C [56]: 97.5%
viability, T/C [35]: 80.8%
viability, T/C [36]: 89.5%
viability, T/C [57]: 104%
viability, T/C [58]: 88%
viability, T/C [59]: 98.9%
viability, T/C [60]: 90.7%
